Experimental data taken from US11046716B2, “Beta-lactamase inhibitors” (priority 2015, dated 2021).

Assays:
SHV-5 = target: T1, SHV-5 (Klebsiella pneumoniae, UniProt P0A3M1); test: β-lactamase enzyme inhibition assay, SHV-5 (cefotaxime substrate); assay type: biochemical
T1 construct: made in house; host or cells: E. coli BL21(DE3)
Summary of the method: (§1)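 Native untagged β-lactamases were expressed in E. coli BL21(DE3), then purified by cation exchange and gel filtration. Enzyme was preincubated with inhibitor for 15 min at 37 °C before substrate was added. Imipenem (A300) served KPC-2 and cefotaxime (A260) served SHV-5. IC50 was taken from initial hydrolysis rates relative to no-inhibitor controls.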

KPC-2 = target: T2, KPC-2 (Klebsiella pneumoniae, UniProt Q9F663); test: β-lactamase enzyme inhibition assay, KPC-2 (imipenem substrate); assay type: biochemical; settings: Class A; imipenem substrate, 300 nm; read-out: KPC-2
T2 construct: made in house; host or cells: E. coli BL21(DE3)
Summary of the method: as §1

VIM-2 = target: T3, VIM-2 (Escherichia coli, UniProt Q5U7L7); test: β-lactamase enzyme inhibition assay, VIM-2 (nitrocefin substrate); assay type: biochemical; settings: Class B; nitrocefin substrate, 486 nm; read-out: VIM-2
T3 construct: made in house; host or cells: E. coli BL21(DE3)
Summary of the method: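 IC50 reflects the inhibitor concentration cutting the initial nitrocefin hydrolysis rate by half, compared with control wells lacking inhibitor. Substrate was used at 100 μM final after a 15 min, 37 °C enzyme–inhibitor preincubation.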

AmpC = target: T4, AmpC (Enterobacter cloacae, UniProt P05364); test: β-lactamase enzyme inhibition assay, p99 AmpC (nitrocefin substrate); assay type: biochemical
T4 construct: made in house; host or cells: E. coli BL21(DE3)
Summary of the method: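 Native untagged β-lactamases were expressed in E. coli BL21(DE3), then purified by cation exchange and gel filtration. Enzyme was preincubated with inhibitor for 15 min at 37 °C before substrate was added. IC50 was taken from initial hydrolysis rates relative to no-inhibitor controls.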

OXA-48 = OXA-48 (UniProt Q6XEC0); test: β-lactamase enzyme inhibition assay, Class D oxacillinase; assay type: biochemical; settings: read-out: OXA-48
[1] = test system: E. coli expressing the Class A Extended Spectrum Beta-Lactamase (ESBL) CTX-M-15; test: Broth microdilution MIC assay with ceftazidime, E. coli CTX-M-15; assay type: cell-based; settings: Fixed CAZ (ceftazidime) 4 μg/mL; E. coli ESBL4 CTX-M-15
Summary of the method: (§2)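 Potentiation format: the β-lactam was held at 4 μg/ml while the test compound was serially diluted, and growth was scored visually after overnight (16-20 h) incubation at 37° C.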

[2] = test system: E. cloacae expressing the Class C P99; test: Broth microdilution MIC assay with ceftazidime, E. cloacae P99; assay type: cell-based; settings: Fixed CAZ (ceftazidime) 4 μg/mL; E. cl. 144200 p99 AmpC
Summary of the method: as §2

[3] = test system: K. pneumoniae expressing the Class A carbapenemase KPC-2; test: Broth microdilution MIC assay with meropenem, K. pneumoniae KPC-2; assay type: cell-based; settings: Fixed Mero (meropenem) 4 μg/mL; K. p. 156319 KPC-3
Summary of the method: as §2

[4] = test system: P. aeruginosa expressing the Class B carbapenemase VIM-2; test: Broth microdilution MIC assay with meropenem, P. aeruginosa VIM-2; assay type: cell-based; settings: Fixed Mero (meropenem) 4 μg/mL; P. aerug. 2775 VIM-2
Summary of the method: as §2

[5] = test system: K. pneumoniae expressing the class A carbapenemase KPC-2 and the class B carbapenemase VIM-4; test: Broth microdilution MIC assay with meropenem, K. pneumoniae KPC-2 and VIM-4; assay type: cell-based; settings: Fixed Mero (meropenem) 4 μg/mL; K. p. A-1797 KPC-2 VIM-4
Summary of the method: as §2

[6] = test system: K. pneumoniae producing the Class D carbapenemase OXA-48; test: Broth microdilution MIC assay with meropenem, K. pneumoniae OXA-48; assay type: cell-based; settings: Fixed Mero (meropenem) 4 μg/mL; K. p. 11978 OXA-48
Summary of the method: as §2

T1 sequence (P0A3M1 22-286): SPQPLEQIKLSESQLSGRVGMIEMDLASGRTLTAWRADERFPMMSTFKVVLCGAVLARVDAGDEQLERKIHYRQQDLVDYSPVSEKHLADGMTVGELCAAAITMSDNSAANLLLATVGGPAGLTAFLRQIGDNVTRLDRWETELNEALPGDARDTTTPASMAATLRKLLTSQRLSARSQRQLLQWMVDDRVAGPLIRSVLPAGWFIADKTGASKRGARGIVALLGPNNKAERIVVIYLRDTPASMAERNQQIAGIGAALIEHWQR
T4 sequence (P05364 21-381): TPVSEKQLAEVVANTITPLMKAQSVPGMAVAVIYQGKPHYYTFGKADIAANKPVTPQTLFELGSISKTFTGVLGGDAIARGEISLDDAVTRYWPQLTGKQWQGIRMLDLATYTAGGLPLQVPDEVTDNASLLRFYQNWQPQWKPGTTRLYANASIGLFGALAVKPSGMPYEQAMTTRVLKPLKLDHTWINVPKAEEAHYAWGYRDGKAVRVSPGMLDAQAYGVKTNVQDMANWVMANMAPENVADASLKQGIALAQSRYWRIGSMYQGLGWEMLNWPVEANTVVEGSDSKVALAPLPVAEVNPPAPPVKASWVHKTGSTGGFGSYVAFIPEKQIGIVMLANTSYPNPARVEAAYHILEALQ
T2 sequence (Q9F663 25-293, looked up): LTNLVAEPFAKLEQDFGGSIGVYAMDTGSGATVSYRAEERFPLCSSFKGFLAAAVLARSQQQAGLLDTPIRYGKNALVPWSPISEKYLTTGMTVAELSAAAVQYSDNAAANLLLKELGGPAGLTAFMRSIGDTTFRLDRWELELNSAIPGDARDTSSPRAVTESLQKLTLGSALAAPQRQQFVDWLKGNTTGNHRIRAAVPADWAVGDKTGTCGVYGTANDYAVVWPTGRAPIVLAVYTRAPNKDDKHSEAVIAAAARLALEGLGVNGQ

Compound | IC50 (SHV-5) | IC50 (KPC-2) | IC50 (VIM-2) | IC50 (AmpC) | IC50 (OXA-48) | MIC (μg/mL) of Exemplary Compounds in presence of fixed β-lactams: E. coli ESBL4 CTX-M-15 [1] | MIC (μg/mL) of Exemplary Compounds in presence of fixed β-lactams: E. cl. 144200 p99 AmpC [2] | MIC (μg/mL) of Exemplary Compounds in presence of fixed β-lactams: K. p. 156319 KPC-3 [3] | MIC (μg/mL) of Exemplary Compounds in presence of fixed β-lactams: P. aerug. 2775 VIM-2 [4] | MIC (μg/mL) of Exemplary Compounds in presence of fixed β-lactams: K. p. A-1797 KPC-2 VIM-4 [5] | MIC (μg/mL) of Exemplary Compounds in presence of fixed β-lactams: K. p. 11978 OXA-48 [6]
NCCn1cc(C(=O)N[C@H]2Cc3cccc(C(=O)O)c3OB2O)nn1 [Example 59, (R)-3-(1-(2-aminoethyl)-1H-1,2,3-triazole-4-carboxamido)-2-hydroxy-3,4-dihydro-2H-benzo[e][1,2]oxaborinine-8-carboxylic acid] | < 100 nM | < 100 nM | < 100 nM | < 100 nM | 1000 to 10000 nM | C (C represents an MIC of <1 μg/mL) | C (C represents an MIC of <1 μg/mL) | B (B represents an MIC between 1 and 16 μg/mL inclusive) | C (C represents an MIC of <1 μg/mL) | B (B represents an MIC between 1 and 16 μg/mL inclusive) | A (A represents an MIC>16 μg/mL)
CC(C)(C(=O)N[C@H]1Cc2cccc(C(=O)O)c2OB1O)n1cc(CNCCN)nn1 [Example 60, (R)-3-(2-(4-(((2-aminoethyl)amino)methyl)-1H-1,2,3-triazol-1-yl)-2-methylpropanamido)-2-hydroxy-3,4-dihydro-2H-benzo[e][1,2]oxaborinine-8-carboxylic acid] | < 100 nM | 100 to 1000 nM | < 100 nM | < 100 nM | < 100 nM | B (B represents an MIC between 1 and 16 μg/mL inclusive) | C (C represents an MIC of <1 μg/mL) | B (B represents an MIC between 1 and 16 μg/mL inclusive) | C (C represents an MIC of <1 μg/mL) | C (C represents an MIC of <1 μg/mL) | B (B represents an MIC between 1 and 16 μg/mL inclusive)
NCCONC(=O)c1cn(CC(=O)N[C@H]2Cc3cccc(C(=O)O)c3OB2O)nn1 [Example 61, (R)-3-(2-(4-((2-aminoethoxy)carbamoyl)-1H-1,2,3-triazol-1-yl)acetamido)-2-hydroxy-3,4-dihydro-2H-benzo[e][1,2]oxaborinine-8-carboxylic acid] | < 100 nM | < 100 nM | 100 to 1000 nM | < 100 nM | 100 to 1000 nM | C (C represents an MIC of <1 μg/mL) | C (C represents an MIC of <1 μg/mL) | B (B represents an MIC between 1 and 16 μg/mL inclusive) | C (C represents an MIC of <1 μg/mL) | B (B represents an MIC between 1 and 16 μg/mL inclusive) | B (B represents an MIC between 1 and 16 μg/mL inclusive)
Nc1cc(-c2cn(CC(=O)N[C@H]3Cc4cccc(C(=O)O)c4OB3O)nn2)ccn1 [Example 62, (R)-3-(2-(4-(2-aminopyridin-4-yl)-1H-1,2,3-triazol-1-yl)acetamido)-2-hydroxy-3,4-dihydro-2H-benzo[e][1,2]oxaborinine-8-carboxylic acid] | < 100 nM | < 100 nM | 100 to 1000 nM | < 100 nM | < 100 nM | C (C represents an MIC of <1 μg/mL) | C (C represents an MIC of <1 μg/mL) | C (C represents an MIC of <1 μg/mL) | B (B represents an MIC between 1 and 16 μg/mL inclusive) | A (A represents an MIC>16 μg/mL) | B (B represents an MIC between 1 and 16 μg/mL inclusive)
NCCSCc1cn(CC(=O)N[C@H]2Cc3cccc(C(=O)O)c3OB2O)nn1 [Example 63, (R)-3-(2-(4-(((2-aminoethyl)thio)methyl)-1H-1,2,3-triazol-1-yl)acetamido)-2-hydroxy-3,4-dihydro-2H-benzo[e][1,2]oxaborinine-8-carboxylic acid] | < 100 nM | < 100 nM | 100 to 1000 nM | < 100 nM | 100 to 1000 nM | C (C represents an MIC of <1 μg/mL) | C (C represents an MIC of <1 μg/mL) | C (C represents an MIC of <1 μg/mL) | C (C represents an MIC of <1 μg/mL) | B (B represents an MIC between 1 and 16 μg/mL inclusive) | B (B represents an MIC between 1 and 16 μg/mL inclusive)
Nc1nc(=O)c(Cc2cn(CC(=O)N[C@H]3Cc4cccc(C(=O)O)c4OB3O)nn2)c(N)[nH]1 [Example 64, (R)-3-(2-(4-((2,6-diamino-4-oxo-1,4-dihydropyrimidin-5-yl)methyl)-1H-1,2,3-triazol-1-yl)acetamido)-2-hydroxy-3,4-dihydro-2H-benzo[e][1,2]oxaborinine-8-carboxylic acid] | < 100 nM | < 100 nM | 100 to 1000 nM | < 100 nM | < 100 nM | C (C represents an MIC of <1 μg/mL) | C (C represents an MIC of <1 μg/mL) | C (C represents an MIC of <1 μg/mL) | B (B represents an MIC between 1 and 16 μg/mL inclusive) | B (B represents an MIC between 1 and 16 μg/mL inclusive) | B (B represents an MIC between 1 and 16 μg/mL inclusive)
NCCCNC(=O)c1cn(CC(=O)N[C@H]2Cc3cccc(C(=O)O)c3OB2O)nn1 [Example 65, (R)-3-(2-(4-((3-aminopropyl)carbamoyl)-1H-1,2,3-triazol-1-yl)acetamido)-2-hydroxy-3,4-dihydro-2H-benzo[e][1,2]oxaborinine-8-carboxylic acid] | < 100 nM | < 100 nM | < 100 nM | < 100 nM | 100 to 1000 nM | C (C represents an MIC of <1 μg/mL) | C (C represents an MIC of <1 μg/mL) | C (C represents an MIC of <1 μg/mL) | B (B represents an MIC between 1 and 16 μg/mL inclusive) | B (B represents an MIC between 1 and 16 μg/mL inclusive) | B (B represents an MIC between 1 and 16 μg/mL inclusive)
N[C@H]1CCN(C(=O)c2cn(CC(=O)N[C@H]3Cc4cccc(C(=O)O)c4OB3O)nn2)C1 [Example 66, (R)-3-(2-(4-((S)-3-aminopyrrolidine-1-carbonyl)-1H-1,2,3-triazol-1-yl)acetamido)-2-hydroxy-3,4-dihydro-2H-benzo[e][1,2]oxaborinine-8-carboxylic acid] | < 100 nM | < 100 nM | < 100 nM | < 100 nM | 100 to 1000 nM | C (C represents an MIC of <1 μg/mL) | C (C represents an MIC of <1 μg/mL) | C (C represents an MIC of <1 μg/mL) | C (C represents an MIC of <1 μg/mL) | B (B represents an MIC between 1 and 16 μg/mL inclusive) | B (B represents an MIC between 1 and 16 μg/mL inclusive)
